Drawing on ChEMBL document CHEMBL4033674, “Bivalent O-glycoside mimetics with S/disulfide/Se substitutions and aromatic core: Synthesis, molecular modeling and inhibitory activity on biomedically relevant lectins in assays of increasing physiological relevance” (Bioorg Med Chem, 2017), this text covers fold change (FC), IC50 and inhibition for eleven compounds.

Activity calls are given as the source filed them. The rule behind the calls is not given here.

Test [1] addresses Galectin-3 (Homo sapiens) (UniProt P17931). Put plainly: Inhibition of biotinylated chimera type galectin-3 in human Capan-1 cells after 30 mins by FACS analysis relative to control. In kind it is cell-based. (In general: A flow cytometer gives signals particle by particle.)
Test [2] has as its target Galectin-1 (Homo sapiens) (UniProt P09382). As to the kind of experiment: Inhibition of biotinylated proto type galectin-1 in human Capan-1 cells after 30 mins by FACS analysis relative to control. In kind it is cell-based.
In test [3] the target is T1, Galectin-8 (Homo sapiens) (UniProt O00214).
T1 sequence (whole entry): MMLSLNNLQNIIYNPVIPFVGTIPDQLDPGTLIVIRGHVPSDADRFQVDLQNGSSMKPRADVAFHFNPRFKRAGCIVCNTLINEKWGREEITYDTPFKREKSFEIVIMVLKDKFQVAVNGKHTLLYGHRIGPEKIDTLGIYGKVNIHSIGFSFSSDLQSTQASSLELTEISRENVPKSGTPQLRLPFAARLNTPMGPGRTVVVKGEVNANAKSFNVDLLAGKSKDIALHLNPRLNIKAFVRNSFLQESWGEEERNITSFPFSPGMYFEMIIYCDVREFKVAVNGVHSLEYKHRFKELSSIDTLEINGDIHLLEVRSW
As to the kind of experiment: Inhibition of biotinylated tandem repeat type galectin-8 in human Capan-1 cells after 30 mins by FACS analysis relative to control. In kind it is cell-based.

Test [4] concerns the target Galectin-3 (Mus musculus, UniProt P16110). Put plainly: Inhibition of galectin-3 in C57BL/6 mouse jejunum using SK-5100 as substrate incubated for 30 mins by VAA staining based microscopic analysis.
The target in test [5] is T2, Galectin-8 (Mus musculus) (UniProt Q9JL15).
T2 sequence (whole entry): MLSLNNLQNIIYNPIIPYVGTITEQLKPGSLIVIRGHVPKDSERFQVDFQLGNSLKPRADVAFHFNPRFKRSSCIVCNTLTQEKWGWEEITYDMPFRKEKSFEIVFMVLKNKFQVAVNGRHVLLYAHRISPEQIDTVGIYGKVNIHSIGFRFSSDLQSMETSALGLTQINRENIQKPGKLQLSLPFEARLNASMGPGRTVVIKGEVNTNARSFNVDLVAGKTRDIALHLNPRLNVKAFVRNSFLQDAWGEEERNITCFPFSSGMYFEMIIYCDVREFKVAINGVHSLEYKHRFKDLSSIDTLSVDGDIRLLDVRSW
As to the kind of experiment: Inhibition of galectin-8 in C57BL/6 mouse jejunum using SK-5100 as substrate incubated for 30 mins by VAA staining based microscopic analysis relative to free lactose.

Test [6] in a line: Inhibition of lectin in C57BL/6 mouse kidney using SK-5100 as substrate incubated for 30 mins by VAA staining based microscopic analysis.
Test [7] addresses Galectin-1 (Mus musculus) (UniProt P16045). Put plainly: Inhibition of galectin-1 in C57BL/6 mouse jejunum using SK-5100 as substrate incubated for 30 mins by VAA staining based microscopic analysis relative to free lactose.

Sequence of Galectin-1 (Homo sapiens) (P09382 whole entry): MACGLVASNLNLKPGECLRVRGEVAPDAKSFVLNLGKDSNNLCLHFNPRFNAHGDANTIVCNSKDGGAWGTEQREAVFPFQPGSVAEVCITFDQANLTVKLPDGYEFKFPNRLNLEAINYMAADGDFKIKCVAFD
Sequence of Galectin-3 (Homo sapiens) (P17931 whole entry): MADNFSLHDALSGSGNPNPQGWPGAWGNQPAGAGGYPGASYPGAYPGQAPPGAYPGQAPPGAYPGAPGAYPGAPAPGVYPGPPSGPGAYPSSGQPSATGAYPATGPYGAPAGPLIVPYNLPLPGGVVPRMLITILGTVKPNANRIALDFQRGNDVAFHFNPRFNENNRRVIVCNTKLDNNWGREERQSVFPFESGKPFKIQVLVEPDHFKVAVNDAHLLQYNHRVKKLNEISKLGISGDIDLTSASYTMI
Sequence of Galectin-3 (P16110 whole entry): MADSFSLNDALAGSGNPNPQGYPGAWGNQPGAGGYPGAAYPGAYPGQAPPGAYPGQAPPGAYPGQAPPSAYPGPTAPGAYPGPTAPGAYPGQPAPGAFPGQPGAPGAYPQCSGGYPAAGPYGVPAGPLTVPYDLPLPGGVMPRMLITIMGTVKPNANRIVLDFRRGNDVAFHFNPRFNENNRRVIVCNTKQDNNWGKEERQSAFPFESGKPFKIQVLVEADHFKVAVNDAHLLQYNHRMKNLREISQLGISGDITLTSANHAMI
Sequence of Galectin-1 (Mus musculus) (P16045 whole entry): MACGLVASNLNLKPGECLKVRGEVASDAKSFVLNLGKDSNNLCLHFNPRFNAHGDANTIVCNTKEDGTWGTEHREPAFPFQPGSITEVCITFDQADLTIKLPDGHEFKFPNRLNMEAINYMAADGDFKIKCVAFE

On to `OC[C@H]1O[C@@H]([Se]Cc2cccc3c(C[Se][C@@H]4O[C@H](CO)[C@H](O)[C@H](O)[C@H]4O)cccc23)[C@H](O)[C@@H](O)[C@H]1O`, for which the fold change (FC) in test [1], in test [2] and in test [3] was 2.5 to 10 throughout.
As for `OC[C@H]1O[C@@H]([Se]Cc2cccc(C[Se][C@@H]3O[C@H](CO)[C@H](O)[C@H](O)[C@H]3O)c2)[C@H](O)[C@@H](O)[C@H]1O`, the fold change (FC) in test [1], in test [2] and in test [3] was 2.5 to 10 each time.
Consider `OC[C@H]1O[C@@H](O[C@H]2[C@H](O)[C@@H](O)[C@H](SCc3ccc(CS[C@@H]4O[C@H](CO)[C@@H](O[C@@H]5O[C@H](CO)[C@H](O)[C@H](O)[C@H]5O)[C@H](O)[C@H]4O)c4ccccc34)O[C@@H]2CO)[C@H](O)[C@@H](O)[C@H]1O`, for which, in test [4], the IC50 – broadly, the concentration that gives 50% inhibition – turned out to be 50 µM. For the same compound, the inhibition entry in test [1], in test [2] and in test [3] was “inactive” throughout. The same compound returned a fold change (FC) in test [5] of 50.
For `OC[C@H]1O[C@@H]([Se]Cc2ccc(C[Se][C@@H]3O[C@H](CO)[C@H](O)[C@H](O)[C@H]3O)c3ccccc23)[C@H](O)[C@@H](O)[C@H]1O`, the fold change (FC) in test [1], in test [2] and in test [3] was 2.5 to 10 throughout.
Turning to `OC[C@H]1O[C@@H]([Se]Cc2ccc3cc(C[Se][C@@H]4O[C@H](CO)[C@H](O)[C@H](O)[C@H]4O)ccc3c2)[C@H](O)[C@@H](O)[C@H]1O`, the IC50 in test [6] is 500 to 1000 µM. The fold change (FC) in test [1], in test [2] and in test [3] was 2.5 to 10 throughout.
With `OC[C@H]1O[C@@H](O[C@H]2[C@H](O)[C@@H](O)[C@H](SSCc3ccc(CSS[C@@H]4O[C@H](CO)[C@@H](O[C@@H]5O[C@H](CO)[C@H](O)[C@H](O)[C@H]5O)[C@H](O)[C@H]4O)c4ccccc34)O[C@@H]2CO)[C@H](O)[C@@H](O)[C@H]1O`, the IC50 in test [4] was 25 µM. The inhibition entry in test [1], in test [2] and in test [3] was “Active” in each case. Besides, the fold change (FC) was 6 in test [7] and 100 in test [5].
As for `OC[C@H]1O[C@@H]([Se]Cc2ccc(C[Se][C@@H]3O[C@H](CO)[C@H](O)[C@H](O)[C@H]3O)cc2)[C@H](O)[C@@H](O)[C@H]1O`, the fold change (FC) in test [1], in test [2] and in test [3] was 2.5 to 10 throughout.
Compound `O=C[C@H](O)[C@@H](O)[C@@H](O)[C@H](O)CO` [GALACTOSE] returned an IC50 in test [6] of 5000 µM.
`OC[C@H]1O[C@@H](SSCc2ccc(CSS[C@@H]3O[C@H](CO)[C@H](O)[C@H](O)[C@H]3O)c3ccccc23)[C@H](O)[C@@H](O)[C@H]1O`: in test [6], the IC50 fell in the range of 500 to 1000 µM. For the same compound, the fold change (FC) in test [1], in test [2] and in test [3] was 2.5 to 10 throughout.
As to `OC[C@H]1O[C@@H](SCc2ccc(CS[C@@H]3O[C@H](CO)[C@H](O)[C@H](O)[C@H]3O)c3ccccc23)[C@H](O)[C@@H](O)[C@H]1O`, the fold change (FC) in test [1], in test [2] and in test [3] was 2.5 to 10 each time.
In the case of `OC[C@H]1O[C@@H](SSCc2cccc3c(CSS[C@@H]4O[C@H](CO)[C@H](O)[C@H](O)[C@H]4O)cccc23)[C@H](O)[C@@H](O)[C@H]1O`, the fold change (FC) in test [1], in test [2] and in test [3] was 2.5 to 10 each time.
